Assay results as given in US8563743B2, “Benzofuranone compound and pharmaceutical composition containing same” (Fuso Pharmaceutical Industries, Ltd., priority 2010, dated 2013).
Where a name gives a salt, the structure may show the parent alone.

How the values were obtained:
[1] = tested on: human pancreatic cancer cell (MIA PaCa-2); assay: cells; conditions: for TGI MIA PaCa-2: 72 hours culture with compound, maximum concentration 10 μM; for GI50: read-out: GI50 MIA PaCa-2; for proliferation rate: MIA PaCa-2, at a concentration of 10 μM
Method: (§1) As positive control substances, 5-fluorouracil (5-FU, Sigma) and gemcitabine hydrochloride (Gemzar, GEM, Eli Lilly Japan K.K.), were tested. The experiment was carried out in accordance with the method carried out by the Commission of Screening for Carcinostatic Agents of the Ministry of Education, Culture, Sports, Science and Technology. With respect to each of experiment groups, the experiment was repeated nine times and an average value was determined. Specifically, each type of cultured cells were seeded into a 96-well microplate at a density of 1×10^4 cells per well (5.0×10^4 cells/mL, 200 μL), the cells were cultured under 5% CO2 at 37° C. for 24 hours, the culture medium was replaced by a culture medium containing the compound (180 μL, the maximum dose of each of the compound was 10 μM, and the final concentration of dimethylsulfoxide (DMSO, Sigma) was adjusted to 0.25%), and the culture was further continued under the same conditions for 72 hours. In this experiment, Dulbecco's modified Eagle's medium (D-MEM, Wako Pure Chemical Industries, Ltd.) was used for the culture of MIA PaCa-2, and Eagle's minimal essential medium (E-MEM, Wako Pure Chemical Industries, Ltd.) was used for the culture of MCF-7.
(§2) After the completion of the culture, alamar blue (20 μL) (Iwaki Glass Co., Ltd.) was added to the culture medium, the resultant mixture was agitated, the culture was then carried out for 3 hours, and fluorescence values were determined on a fluorescence plate reader (Spectra Max M5 (Nihon Molecular Devices Corporation)) at an excitation wavelength of 530 nm and a fluorescence wavelength of 590 nm.
(§3) The fluorescence values immediately before the action of each of the compounds were determined by replacing the culture medium, adding alamar blue (20 μL) immediately after the replacement of the culture medium, agitating the resultant mixture, carrying out the culture for 3 hours, and measuring the fluorescence values on a fluorescence plate reader.
(§4) On the basis of the measurement values thus obtained, Tz (the state of the cultured cells immediately before the action of the compound), GI50 (the concentration of the compound required for inhibiting the proliferation of the cultured cells by 50% relative to the proliferation of the cultured cells in the presence of […]), TGI (the concentration of the compound required for inhibiting the proliferation of the cells in such a manner that the number of the cells became the same as Tz), LC50 (the concentration of the compound required for decreasing the number of the cells to 50% of Tz) and the proliferation rate (the rate of the proliferation of the cultured cells from the time pint of the action of the compound until the time point of the measurement of fluorescence) were determined.
(§5) Due to the problem of the solubility of each of the compounds, the maximum concentration was set at 10 μM.

[2] = tested on: human breast cancer cell (MCF-7); assay: cells; conditions: for TGI MCF-7: 72 hours culture with compound, maximum concentration 10 μM; for GI50 / CC50: Homo sapiens, MCF7, 72 h; for GI50: read-out: GI50 MCF-7; for CC50: read-out: LC50 MCF-7
Method: as §1, §2, §3, §4, §5

Row | Compound | cytotoxic or cell proliferation inhibition activity [1] | TGI MIA PaCa-2 [1] [µM] | GI50 ([1]; Homo sapiens, MIA PaCa-2, 72 h) [µM] | cytotoxic or cell proliferation inhibition activity [2] | TGI MCF-7 [2] [µM] | GI50 [2] [µM] | CC50 [2] [µM] | concentration from which no increase in the activity was observed ([1]; MIA PaCa-2) [µM] | proliferation rate [1] [%] | concentration from which no increase in the activity was observed ([2]; MCF-7) [µM] | proliferation rate ([2]; MCF-7, at a concentration of 10 ηM) [%] | concentration at which a cytotoxic or cell proliferation inhibition activity was exhibited [1] [µM] | CC50 ([1]; Homo sapiens, MIA PaCa-2, 72 h, read-out: LC50 MIA PaCa-2) [µM] | concentration at which a cytotoxic or cell proliferation inhibition activity was exhibited [2] [µM] | proliferation rate ([2]; MCF-7, at a concentration of 10 μM (the maximum dose)) [%]
1 | O=c1[nH]cc(F)c(=O)[nH]1 [5-FU, 5-fluorouracil] | did not exhibit either of these activities | >10 | > 10 | did not exhibit either of these activities | >10 | > 10 | > 10 |  |  |  |  |  |  |  | 
2 | Nc1ccn([C@@H]2O[C@H](CO)[C@@H](O)C2(F)F)c(=O)n1 [GEM, gemcitabine hydrochloride] | exhibited a cytotoxic or cell proliferation inhibition activity | >10 | 0.035 | did not exhibit either of these activities | >10 | > 10 | > 10 | ≥ 0.05 | 26.47 | ≥ 0.05 | 59.52 |  |  |  | 
3 | COCCNS(=O)(=O)c1ccc(OC)c2oc(-c3csc(NC(=O)CCl)n3)cc12 [MU-1497, 2-chloro-N-{4-[7-methoxy-4-(2-methoxyethylsulfamoyl)-benzofuran-2-yl]-thiazol-2-yl}-acetamide] |  | 6.15 | 4.22 |  | 4.70 | 3.82 | 5.81 |  | −95.39 |  |  | ≥ 2.5 | 8.07 | ≥ 5.0 | −99.71
